Where two headings read alike, the source gives them in different places.
Assays:
BRM = target: T1, BRM (Homo sapiens, UniProt P51531); experiment: ATPase catalytic activity of BRM, ADP-Glo in vitro biochemical assay; conditions: ATPase catalytic activity, 30 nM BRM, 400 μM ATP
T1 construct: made in house; host or cells: High Five insect cells

BRG-1 = target: T2, BRG-1 (Homo sapiens, UniProt P51532); experiment: ATPase catalytic activity of BRG-1, ADP-Glo in vitro biochemical assay; conditions: ATPase catalytic activity, 30 nM BRG-1, 400 μM ATP
T2 construct: made in house; host or cells: High Five insect cells
T2 sequence (P51532 whole entry): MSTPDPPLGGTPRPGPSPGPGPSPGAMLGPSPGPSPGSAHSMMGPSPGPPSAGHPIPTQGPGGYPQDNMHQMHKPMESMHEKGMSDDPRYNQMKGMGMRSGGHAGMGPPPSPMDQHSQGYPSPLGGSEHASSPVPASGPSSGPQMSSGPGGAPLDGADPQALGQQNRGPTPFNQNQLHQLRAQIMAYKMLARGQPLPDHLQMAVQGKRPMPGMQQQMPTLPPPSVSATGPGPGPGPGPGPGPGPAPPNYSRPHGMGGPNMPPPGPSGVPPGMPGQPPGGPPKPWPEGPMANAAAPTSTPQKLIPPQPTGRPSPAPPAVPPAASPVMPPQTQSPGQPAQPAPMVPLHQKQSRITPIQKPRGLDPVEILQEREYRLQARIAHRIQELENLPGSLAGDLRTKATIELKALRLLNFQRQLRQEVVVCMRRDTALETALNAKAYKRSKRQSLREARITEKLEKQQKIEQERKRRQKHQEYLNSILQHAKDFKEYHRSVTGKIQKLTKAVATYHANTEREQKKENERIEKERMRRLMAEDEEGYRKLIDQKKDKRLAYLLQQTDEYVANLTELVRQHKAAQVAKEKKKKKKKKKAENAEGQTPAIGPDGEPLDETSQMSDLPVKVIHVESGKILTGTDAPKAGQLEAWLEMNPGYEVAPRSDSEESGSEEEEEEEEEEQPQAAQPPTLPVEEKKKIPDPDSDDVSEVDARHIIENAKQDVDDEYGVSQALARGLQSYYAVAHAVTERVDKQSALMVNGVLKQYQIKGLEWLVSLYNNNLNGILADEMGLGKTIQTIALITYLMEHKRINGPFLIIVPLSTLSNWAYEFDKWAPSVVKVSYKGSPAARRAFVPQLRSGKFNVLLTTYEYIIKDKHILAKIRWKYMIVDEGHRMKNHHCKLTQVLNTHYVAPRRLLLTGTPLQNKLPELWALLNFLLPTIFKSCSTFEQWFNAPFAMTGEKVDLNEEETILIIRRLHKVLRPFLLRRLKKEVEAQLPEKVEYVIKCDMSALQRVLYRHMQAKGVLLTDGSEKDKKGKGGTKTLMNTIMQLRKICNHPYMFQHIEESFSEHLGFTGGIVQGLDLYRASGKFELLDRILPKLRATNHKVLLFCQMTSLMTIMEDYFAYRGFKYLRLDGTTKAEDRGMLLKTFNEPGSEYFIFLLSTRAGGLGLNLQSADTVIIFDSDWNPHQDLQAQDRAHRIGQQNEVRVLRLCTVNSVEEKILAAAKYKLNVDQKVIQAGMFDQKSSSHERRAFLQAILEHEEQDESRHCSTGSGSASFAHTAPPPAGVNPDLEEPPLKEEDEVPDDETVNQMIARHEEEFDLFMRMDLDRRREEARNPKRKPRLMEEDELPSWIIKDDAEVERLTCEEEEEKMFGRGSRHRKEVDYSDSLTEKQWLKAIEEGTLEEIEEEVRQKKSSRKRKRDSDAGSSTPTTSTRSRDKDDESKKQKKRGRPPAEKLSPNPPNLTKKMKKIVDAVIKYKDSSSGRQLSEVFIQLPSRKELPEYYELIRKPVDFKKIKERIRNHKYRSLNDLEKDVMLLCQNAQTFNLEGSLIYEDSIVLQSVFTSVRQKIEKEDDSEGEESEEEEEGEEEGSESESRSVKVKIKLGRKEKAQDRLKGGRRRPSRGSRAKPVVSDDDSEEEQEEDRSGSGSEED

T1 sequence (P51531 whole entry): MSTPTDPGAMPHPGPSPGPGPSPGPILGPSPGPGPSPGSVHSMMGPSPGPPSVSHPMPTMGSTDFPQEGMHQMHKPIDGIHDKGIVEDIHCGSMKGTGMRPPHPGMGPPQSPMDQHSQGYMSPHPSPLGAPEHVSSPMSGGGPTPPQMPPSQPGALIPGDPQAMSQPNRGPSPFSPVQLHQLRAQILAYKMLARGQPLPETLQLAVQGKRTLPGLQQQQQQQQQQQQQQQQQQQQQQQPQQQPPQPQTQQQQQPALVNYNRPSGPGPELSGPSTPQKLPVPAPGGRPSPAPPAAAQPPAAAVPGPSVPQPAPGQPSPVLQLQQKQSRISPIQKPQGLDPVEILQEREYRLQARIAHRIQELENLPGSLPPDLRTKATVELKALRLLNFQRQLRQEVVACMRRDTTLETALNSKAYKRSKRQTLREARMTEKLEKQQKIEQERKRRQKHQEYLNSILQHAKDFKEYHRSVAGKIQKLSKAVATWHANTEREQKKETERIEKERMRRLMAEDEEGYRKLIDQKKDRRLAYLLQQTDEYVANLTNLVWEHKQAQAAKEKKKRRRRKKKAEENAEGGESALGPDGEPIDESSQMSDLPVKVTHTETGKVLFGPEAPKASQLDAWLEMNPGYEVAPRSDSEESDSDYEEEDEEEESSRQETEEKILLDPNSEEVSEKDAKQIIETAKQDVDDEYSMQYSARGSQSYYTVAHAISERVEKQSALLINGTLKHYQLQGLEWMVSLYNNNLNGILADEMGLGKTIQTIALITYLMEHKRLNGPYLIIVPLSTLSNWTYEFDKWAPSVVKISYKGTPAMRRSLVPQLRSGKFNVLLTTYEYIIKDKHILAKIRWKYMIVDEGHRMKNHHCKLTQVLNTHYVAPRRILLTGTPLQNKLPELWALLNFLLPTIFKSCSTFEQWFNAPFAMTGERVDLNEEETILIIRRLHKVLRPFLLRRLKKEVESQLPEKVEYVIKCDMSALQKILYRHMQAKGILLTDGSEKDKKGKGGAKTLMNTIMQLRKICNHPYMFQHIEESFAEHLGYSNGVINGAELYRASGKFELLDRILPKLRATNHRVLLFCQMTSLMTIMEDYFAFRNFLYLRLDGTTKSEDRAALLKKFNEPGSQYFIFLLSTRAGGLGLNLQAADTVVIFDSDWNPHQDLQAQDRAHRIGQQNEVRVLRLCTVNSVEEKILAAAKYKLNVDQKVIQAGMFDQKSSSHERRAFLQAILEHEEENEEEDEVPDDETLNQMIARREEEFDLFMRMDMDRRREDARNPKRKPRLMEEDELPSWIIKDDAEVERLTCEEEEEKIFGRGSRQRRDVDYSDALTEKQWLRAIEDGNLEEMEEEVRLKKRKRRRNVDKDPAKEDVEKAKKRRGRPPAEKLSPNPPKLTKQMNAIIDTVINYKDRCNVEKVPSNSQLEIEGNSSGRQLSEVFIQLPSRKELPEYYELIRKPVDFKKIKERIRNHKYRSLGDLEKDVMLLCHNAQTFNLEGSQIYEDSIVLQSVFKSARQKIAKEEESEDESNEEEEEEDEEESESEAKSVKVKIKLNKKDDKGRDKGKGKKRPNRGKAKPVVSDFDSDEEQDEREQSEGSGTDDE

Row | Structure (SMILES) | IC50 (BRM; read-out: BRM IP50) | IC50 (BRG-1; read-out: BRG1 IP50) | IC50 (BRM; read-out: BRM IP50 (μM)*) | IC50 (BRG-1; read-out: BRG1 IP50 (μM)*)
1 | COC[C@H](NC(=O)c1ccn(S(C)(=O)=O)c1)C(=O)Nc1nc(-c2ccc(F)c(OC)c2)cs1 [Compound 716] | > 0.01 µM | > 0.01 µM |  | 
2 | C[C@H](NC(=O)c1ccn(C(C)(C)C)c1)C(=O)Nc1nc(-c2cccc(-c3cnn(C)n3)n2)cs1 [Compound 488] | > 0.1 µM | > 0.1 µM |  | 
3 | C[C@@H]1CN(c2cccc(-c3csc(NC(=O)CNC(=O)c4ccn(C5COC5)c4)n3)n2)C[C@H](C)O1 [Compound 343] |  |  | > 0.01 µM | > 0.1 µM
4 | Cc1cccc(-c2cccc(-c3csc(NC(=O)CNC(=O)c4ccn(C(C)(C)C)c4)n3)c2)n1 [Compound 417] | < 0.01 µM | > 0.01 µM |  | 
5 | COC(C)(C)C#Cc1cccc(-c2csc(NC(=O)CNC(=O)c3ccn(C(C)(C)C)c3)n2)n1 [Compound 362, 1-(tert-butyl)-N-(2-((4-(6-(3-methoxy-3-methylbut-1-yn-1-yl)pyridin-2-yl)thiazol-2-yl)amino)-2-oxoethyl)-1H-pyrrole-3-carboxamide] |  |  | > 0.1 µM | > 0.1 µM
6 | CO[C@H]1CN(c2cccc(-c3csc(NC(=O)CNC(=O)c4ccn(C(C)(C)C)c4)n3)n2)CC[C@@H]1O (racemic) [Compound 310] |  |  | > 0.01 µM | > 0.1 µM
7 | CS(=O)(=O)n1ccc(C(=O)NCC(=O)Nc2nc(-c3cccc([C@H]4[C@@H]5COC[C@@H]54)c3)cs2)c1 [Compound 717] | > 0.01 µM | > 0.01 µM |  | 
8 | CC1(n2ccc(C(=O)NCC(=O)Nc3nc(-c4ccnc(N5CCC(O)CC5)n4)cs3)c2)COC1 [Compound 321] |  |  | > 0.01 µM | > 0.1 µM
9 | N#CC1(n2ccc(C(=O)NCC(=O)Nc3nc(-c4cc(F)cc(OC5CC5)c4)cs3)c2)CC1 [Compound 555] | > 0.01 µM | > 0.01 µM |  | 
10 | C[C@@H]1CCCN(c2cccc(-c3csc(NC(=O)CNC(=O)c4ccn(S(C)(=O)=O)c4)n3)n2)C1 [Compound 336] |  |  | > 0.01 µM | > 0.01 µM
11 | CC(C)(C)n1ccc(C(=O)NCC(=O)Nc2nc(-c3cccc(N4CC(N5CCOCC5)C4)n3)cs2)c1 [Compound 317] |  |  | > 0.1 µM | > 0.1 µM
12 | CS(=O)(=O)n1ccc(C(=O)NCC(=O)Nc2nc(-c3cccc(N4CCOCC4)c3)cs2)c1 [Compound 99, 1-methylsulfonyl-N-[2-[[4-(3-morpholinophenyl)thiazol-2-yl]amino]-2-oxo-ethyl]pyrrole-3-carboxamide] |  |  | < 0.01 µM | > 0.01 µM
13 | CS(=O)(=O)n1ccc(C(=O)NCC(=O)Nc2nc(-c3cccc(OC[C@@H]4CCOC4)c3)cs2)c1 [Compound 304, 1-methylsulfonyl-N-[2-oxo-2-[[4-[3-[[(3R)-tetrahydrofuran-3-yl]methoxy]phenyl]thiazol-2-yl]amino]ethyl]pyrrole-3-carboxamide] |  |  | > 0.01 µM | > 0.01 µM
14 | Cn1ccc(-c2cccc(-c3csc(NC(=O)CNC(=O)c4ccn(C5(C)COC5)c4)n3)c2)n1 [Compound 144] |  |  | > 0.01 µM | > 0.01 µM
15 | C[C@@H]1CN(c2cccc(-c3csc(NC(=O)CNC(=O)c4ccn(C(C)(C)C)n4)n3)c2)C[C@H](C)O1 [Compound 777] | > 0.01 µM | > 0.01 µM |  | 
16 | CCS(=O)(=O)n1ccc(C(=O)NCC(=O)Nc2nc(-c3cccc(-c4cnn(C)n4)c3)cs2)c1 [Compound 403] | > 0.01 µM | > 0.01 µM |  | 
17 | COC[C@H](NC(=O)c1ccn(S(C)(=O)=O)c1)C(=O)Nc1nc(-c2cccc(N3CCC(O)CC3)c2)cs1 [Compound 369] |  |  | < 0.01 µM | > 0.01 µM
18 | CS(=O)(=O)n1ccc(C(=O)NCC(=O)Nc2nc(-c3cc(F)cc(N4CCC4)c3)cs2)c1 [Compound 518] | < 0.01 µM | < 0.01 µM |  | 
19 | CS(=O)(=O)n1ccc(C(=O)NCC(=O)Nc2nc(-c3cccc(OC(F)(F)F)c3)cs2)c1 [Compound 276] |  |  | > 0.01 µM | > 0.01 µM
20 | C[C@@H]1CN(c2cccc(-c3csc(NC(=O)CNC(=O)c4ccn(C(C)(C)C)c4)n3)n2)C[C@@H]1F (racemic) [Compound 724] | > 0.01 µM | > 0.01 µM |  | 
21 | CC(C)(C)n1ccc(C(=O)NCC(=O)Nc2nc(-c3cccc(N4C[C@H]5CC(F)(F)[C@H]5C4)n3)cs2)c1 (racemic) [Compound 703] | > 0.1 µM | > 0.1 µM |  | 

From patent publication US20230079819A1, “COMPOUNDS AND USES THEREOF” (Foghorn Therapeutics Inc., priority 2019, published 2023)
